Blank lines part the entries; values can stand above or below the molecule they belong to.
Experiments:
Type in all cases: cell-based
[1] = target: T1, TRPM8 (Homo sapiens, UniProt Q7Z2W7); experiment: mNeonGreen-Calflux-nLuc-hTRPM8 BRET probe in HEK293T cells
T1 construct: expressed in transfected cells; host or cells: HEK293T
Protocol: (§1) B) Dose response curve of the TRPM8 agonist WS12 to trigger activation of the mNeon-Calflux-nLuc-hTRPM8 BRET probe transiently expressed in HEK293T cells that were pre-treated or not with 10 μM of the TRPM8 antagonist M8B hydrochloride. C) Dose response curve of the PIEZO1 agonist YODA1 to trigger activation of the mNeon-Calflux-nLuc-PIEZO1 BRET probe transiently expressed in HEK293T cells. Data represent the average of at least three independent experiments.
(§2) As described above in Examples 7 and 8, the intramolecular BRET biosensor probes hTRPM8-nLuc-Calflux-mGreen and hTRPV4-nLuc-Calflux-mGreen have been prepared wherein the DNA sequence encoding the human protein TRPM8 is fused in C-terminal to a calflux-based calcium BRET sensor, said sensor being sandwiched between the nano luciferase and mNeonGreen. In an effort to exemplify and validate the concept of Calcium sensor-based BRET probes fused to other ion channels, we first assessed whether the activity of two other TRPs ion channels, TRPV4 and TRPM8, could also be measured using such BRET probes. […] The measured half-maximal responses were consistent with those reported in the literature using patch-clamp or calcium-flux measurements on cells transiently expressing TRPV4 or TRPM8.

[2] = target: T2, TRPV1 channel (Homo sapiens, UniProt Q8NER1); experiment: hTRPV1-nLuc-Calflux-YFP (or mNeonGreen) BRET probe in HEK293T cells
T2 construct: expressed in transfected cells; host or cells: HEK293T

[3] = tested on: potassium channel SK3 (KCa2.3); experiment: SK3-nLuc-KBP-mNeonGreen BRET probe in HEK293T cells; conditions: different concentrations, FIG. 5B
Excerpt: FIG. 5: is a schematic representation of the SK3-nLuc-KBP-mNeonGreen probe (A) and the measure of BRET signal as obtained during the activation of the channel in presence of lonomycine (B).
The novel BRET probe has been constructed to measure the activity of potassium channel SK3 (KCa2.3) by coupling the cDNA of the SK3 channel to a potassium sensor (protein KBP, Ashrafet KU al., 2016, Structure 24, 741-749) sandwiched in between luciferase and mNeonGreen (SK3-nLuc-KBP-mNeonGreen, See FIG. 5A).
The BRET sensor is based on KBP which has been published (Bischof H et al, 2017, Nat Commun. 8(1):1422), but this sensor was never coupled to a channel in order to specifically measure the activity of the channel as presented in this invention.

[4] = target: T3, TRPV4 (Homo sapiens, UniProt Q9HBA0); experiment: mNeonGreen-Calflux-nLuc-hTRPV4 BRET probe in HEK293T cells
T3 construct: expressed in transfected cells; host or cells: HEK293T
Protocol: as §1, §2

[5] = target: T4, TRPV1 ion channel (Homo sapiens, UniProt Q8NER1); experiment: mNeonGreen-Calflux-nLuc-hTRPV1 BRET biosensor in HEK293T cells; conditions: for inhibition of CAPS-induced BRET increase: FIG. 8C/8E
T4 construct: expressed in transfected cells; host or cells: HEK293T

[6] = target: T5, NR1-nLuc-Calflux-YFP/NR2B ion channels (NMDA receptors) (Homo sapiens, UniProt Q05586+Q13224); experiment: NR1-nLuc-Calflux-YFP BRET probe coexpressed with NR2B in HEK293T cells; conditions: read-out: EC50 of activation of NR1-nLuc-Calflux-YFP/NR2B
T5 construct: expressed in transfected cells; host or cells: HEK293T
Excerpt: (§3) FIG. 7: Dose-response for NMDA as measured in HEK293T cells transiently expressing the NR1-nLuc-Calflux-YFP probe alone (A) or coexpressed with NR2A (B) or NR2B (C) subunits.
(§4) We have constructed a novel BRET probe allowing to measure the activity of NMDA receptors by coupling the cDNA of the NR1 subunit to the BRET sensor nLuc-Calflux-YFP (FIG. 7). NMDA receptors are heterotetramers comprising 2 NR1 subunits and 2 NR2 or NR3 subunits. The subunits NR1, NR2 or NR3 expressed separately cannot form functional receptors.

[7] = target: T6, NR1 subunit (Homo sapiens, UniProt Q05586); experiment: NR1-nLuc-Calflux-YFP BRET probe expressed alone in HEK293T cells; conditions: increasing dose, FIG. 7A
T6 construct: expressed in transfected cells; host or cells: HEK293T
Excerpt: as §3, §4

[8] = target: T7, PIEZO1 channel (Homo sapiens, UniProt Q92508); experiment: mNeonGreen-Calflux-nLuc-PIEZO1 BRET probe in HEK293T cells; conditions: FIG. 9C
T7 construct: expressed in transfected cells; host or cells: HEK293T
Protocol: as §1
This confirms the functionality of our calcium sensor-based BRET Probe targeting PIEZO1.

[9] = target: T8, NaV1.8 (Homo sapiens, UniProt Q9Y5Y9); experiment: mNeon-SOFI-nLuc-NaV1.8 BRET probe in HEK293T cells; conditions: FIG. 10C
T8 construct: expressed in transfected cells; host or cells: HEK293T
Excerpt: (§5) B) Kinetic measurement of the effect of KCl injection on the BRET measured from HEK293T cells transiently expressing mNeon-Calflux-nLuc-KiR6.1 BRET probe. C) Kinetic measurement of the effect of Deltamethrine injection on the BRET measured from HEK293T cells transiently expressing mNeon-SOFI-nLuc-NaV1.8 BRET probe.
(§6) TREK1 BRET probe was activated using the chemical activator BL1249. Kir6.1 BRET probe was activated using KCl. Following depolarization, a strong outward potassium current is known to occur in HEK293T cells. Extracellular potassium ions would therefore be expected to re-enter the cells through ectopically-expressed inward rectifying ion channels such as KiR6.1, thereby increasing the local concentration of potassium in the intracellular vicinity of the KiR ion channel. NaV1.8 was activated in the presence of Deltamethrin, a pyrethroid toxin that is known to prolong the open state of tetrodotoxin-resistant sodium channels. […] While surprising, this observation could nonetheless be explained knowing that TREK1 trigger hyperpolarisation of the cell membrane by allowing potassium to leak outside cells, thus lowering the intracellular potassium concentration which will tend to balance with the extracellular potassium concentration. In that conditions, it has been shown that potassium will inwardly flow through TREK1 opened pore, which is in line with our observations.

[10] = target: T9, KiR6.1 (Homo sapiens, UniProt Q15842); experiment: mNeon-KBP-nLuc-KiR6.1 BRET probe in HEK293T cells; conditions: KCl depolarisation, FIG. 10B
T9 construct: expressed in transfected cells; host or cells: HEK293T
T9 sequence (Q15842 1-424): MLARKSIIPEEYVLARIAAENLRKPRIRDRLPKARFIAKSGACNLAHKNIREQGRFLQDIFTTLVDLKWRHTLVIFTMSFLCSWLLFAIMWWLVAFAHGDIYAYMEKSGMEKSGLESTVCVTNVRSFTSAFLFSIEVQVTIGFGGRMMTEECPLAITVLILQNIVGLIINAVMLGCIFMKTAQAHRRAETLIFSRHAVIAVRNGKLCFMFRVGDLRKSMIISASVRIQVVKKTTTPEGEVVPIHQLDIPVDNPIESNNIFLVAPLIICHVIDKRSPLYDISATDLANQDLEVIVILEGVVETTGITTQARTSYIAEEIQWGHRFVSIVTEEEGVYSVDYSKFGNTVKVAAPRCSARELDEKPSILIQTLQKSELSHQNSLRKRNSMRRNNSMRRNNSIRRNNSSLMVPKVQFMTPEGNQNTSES
Excerpt: […] C) Kinetic measurement of the effect of Deltamethrine injection on the BRET measured from HEK293T cells transiently expressing mNeon-SOFI-nLuc-NaV1.8 BRET probe.
as §6

[11] = target: T10, TREK1 (Homo sapiens, UniProt O95069); experiment: mNeon-KBP-nLuc-TREK1 BRET probe in HEK293T cells; conditions: repeated activation with increasing quantities, FIG. 10A
T10 construct: expressed in transfected cells; host or cells: HEK293T
T10 sequence (O95069 1-426): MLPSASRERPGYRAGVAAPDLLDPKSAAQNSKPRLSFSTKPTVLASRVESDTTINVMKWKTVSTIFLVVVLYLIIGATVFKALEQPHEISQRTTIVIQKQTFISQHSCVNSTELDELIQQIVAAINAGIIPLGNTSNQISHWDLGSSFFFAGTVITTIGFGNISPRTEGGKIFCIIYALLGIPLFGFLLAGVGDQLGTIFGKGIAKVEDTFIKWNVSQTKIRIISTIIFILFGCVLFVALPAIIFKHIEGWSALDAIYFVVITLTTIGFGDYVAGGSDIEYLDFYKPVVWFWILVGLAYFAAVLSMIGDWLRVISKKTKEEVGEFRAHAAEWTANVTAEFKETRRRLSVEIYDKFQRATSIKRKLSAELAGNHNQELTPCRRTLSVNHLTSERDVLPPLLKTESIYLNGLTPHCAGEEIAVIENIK
Excerpt: as §5, §6

[12] = HEK293T cells pre-treated with 10 μM antagonist

T4 sequence (Q8NER1 whole entry): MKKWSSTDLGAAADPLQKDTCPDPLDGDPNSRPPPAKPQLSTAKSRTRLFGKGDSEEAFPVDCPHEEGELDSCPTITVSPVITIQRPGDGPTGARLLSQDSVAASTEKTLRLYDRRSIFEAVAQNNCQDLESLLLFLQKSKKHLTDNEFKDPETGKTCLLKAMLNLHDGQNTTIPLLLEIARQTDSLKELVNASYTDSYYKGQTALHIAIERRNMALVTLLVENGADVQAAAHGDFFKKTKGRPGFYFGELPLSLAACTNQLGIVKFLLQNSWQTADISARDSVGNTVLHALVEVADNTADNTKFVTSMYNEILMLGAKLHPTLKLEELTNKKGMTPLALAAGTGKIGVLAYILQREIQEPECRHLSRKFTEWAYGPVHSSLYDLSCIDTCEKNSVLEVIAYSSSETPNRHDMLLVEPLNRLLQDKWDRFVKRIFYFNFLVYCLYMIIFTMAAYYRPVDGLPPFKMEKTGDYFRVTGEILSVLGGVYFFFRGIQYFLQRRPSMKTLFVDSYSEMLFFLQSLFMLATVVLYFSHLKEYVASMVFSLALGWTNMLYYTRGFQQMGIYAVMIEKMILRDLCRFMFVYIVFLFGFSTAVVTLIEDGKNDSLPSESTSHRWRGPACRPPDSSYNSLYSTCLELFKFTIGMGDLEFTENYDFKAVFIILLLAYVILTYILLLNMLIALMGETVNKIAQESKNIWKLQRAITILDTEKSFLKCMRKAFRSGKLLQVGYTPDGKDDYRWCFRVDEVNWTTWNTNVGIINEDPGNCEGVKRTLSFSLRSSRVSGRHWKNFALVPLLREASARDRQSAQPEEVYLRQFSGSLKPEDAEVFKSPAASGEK
T1 sequence (Q7Z2W7 whole entry): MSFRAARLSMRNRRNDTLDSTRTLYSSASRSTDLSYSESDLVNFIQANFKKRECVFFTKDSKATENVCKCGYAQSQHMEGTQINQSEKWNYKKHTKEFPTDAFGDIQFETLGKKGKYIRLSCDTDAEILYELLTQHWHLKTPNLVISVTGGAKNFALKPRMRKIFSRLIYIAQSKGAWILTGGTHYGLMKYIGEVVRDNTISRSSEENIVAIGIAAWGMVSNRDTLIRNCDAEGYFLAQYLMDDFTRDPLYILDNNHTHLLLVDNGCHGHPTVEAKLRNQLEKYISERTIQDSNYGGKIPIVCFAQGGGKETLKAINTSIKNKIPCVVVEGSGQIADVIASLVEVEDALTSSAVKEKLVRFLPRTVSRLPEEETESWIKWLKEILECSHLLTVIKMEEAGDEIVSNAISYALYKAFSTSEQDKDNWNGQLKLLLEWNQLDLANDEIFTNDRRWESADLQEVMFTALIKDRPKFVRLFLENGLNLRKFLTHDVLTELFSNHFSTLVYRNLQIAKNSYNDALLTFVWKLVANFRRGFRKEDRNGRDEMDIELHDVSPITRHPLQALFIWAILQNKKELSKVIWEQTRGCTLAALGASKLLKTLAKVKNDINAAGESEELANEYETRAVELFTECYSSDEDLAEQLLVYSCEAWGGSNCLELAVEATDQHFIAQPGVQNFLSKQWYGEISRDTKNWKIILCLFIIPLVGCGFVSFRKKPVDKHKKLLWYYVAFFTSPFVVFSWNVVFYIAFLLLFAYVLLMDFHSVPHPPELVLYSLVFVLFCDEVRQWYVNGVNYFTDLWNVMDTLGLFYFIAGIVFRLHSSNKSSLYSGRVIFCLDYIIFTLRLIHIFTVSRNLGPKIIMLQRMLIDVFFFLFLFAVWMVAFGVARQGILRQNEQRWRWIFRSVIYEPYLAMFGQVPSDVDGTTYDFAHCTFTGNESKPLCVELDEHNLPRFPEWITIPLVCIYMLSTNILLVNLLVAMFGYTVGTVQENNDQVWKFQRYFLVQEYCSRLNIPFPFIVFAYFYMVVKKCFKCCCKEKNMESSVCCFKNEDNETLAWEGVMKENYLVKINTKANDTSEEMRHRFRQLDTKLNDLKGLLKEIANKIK
T3 sequence (Q9HBA0 whole entry): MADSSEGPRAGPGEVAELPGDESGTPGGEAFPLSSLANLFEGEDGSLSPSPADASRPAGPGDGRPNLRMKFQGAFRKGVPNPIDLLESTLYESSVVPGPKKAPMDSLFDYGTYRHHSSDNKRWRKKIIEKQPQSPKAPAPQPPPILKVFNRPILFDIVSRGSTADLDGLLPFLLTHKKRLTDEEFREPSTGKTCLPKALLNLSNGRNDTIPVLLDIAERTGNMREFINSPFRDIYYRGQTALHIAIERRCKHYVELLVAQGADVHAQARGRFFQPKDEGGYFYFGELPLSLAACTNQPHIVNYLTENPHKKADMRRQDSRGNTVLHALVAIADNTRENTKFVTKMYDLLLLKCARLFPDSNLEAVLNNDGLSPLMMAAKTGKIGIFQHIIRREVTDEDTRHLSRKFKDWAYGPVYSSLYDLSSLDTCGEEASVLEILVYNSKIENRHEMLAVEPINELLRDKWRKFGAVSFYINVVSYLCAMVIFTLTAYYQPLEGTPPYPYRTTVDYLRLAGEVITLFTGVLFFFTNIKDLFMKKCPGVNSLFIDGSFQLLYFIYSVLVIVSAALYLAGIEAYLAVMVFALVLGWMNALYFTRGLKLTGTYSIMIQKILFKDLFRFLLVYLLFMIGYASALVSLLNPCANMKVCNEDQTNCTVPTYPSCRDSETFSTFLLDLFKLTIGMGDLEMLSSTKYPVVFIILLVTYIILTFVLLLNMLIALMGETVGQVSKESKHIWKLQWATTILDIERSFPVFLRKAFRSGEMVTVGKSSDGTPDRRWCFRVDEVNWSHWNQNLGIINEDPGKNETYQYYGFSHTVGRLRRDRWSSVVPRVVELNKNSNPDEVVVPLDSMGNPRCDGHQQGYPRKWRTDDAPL
T2 sequence (Q8NER1 whole entry): as the sequence (Q8NER1 whole entry) above
T8 sequence (Q9Y5Y9 whole entry): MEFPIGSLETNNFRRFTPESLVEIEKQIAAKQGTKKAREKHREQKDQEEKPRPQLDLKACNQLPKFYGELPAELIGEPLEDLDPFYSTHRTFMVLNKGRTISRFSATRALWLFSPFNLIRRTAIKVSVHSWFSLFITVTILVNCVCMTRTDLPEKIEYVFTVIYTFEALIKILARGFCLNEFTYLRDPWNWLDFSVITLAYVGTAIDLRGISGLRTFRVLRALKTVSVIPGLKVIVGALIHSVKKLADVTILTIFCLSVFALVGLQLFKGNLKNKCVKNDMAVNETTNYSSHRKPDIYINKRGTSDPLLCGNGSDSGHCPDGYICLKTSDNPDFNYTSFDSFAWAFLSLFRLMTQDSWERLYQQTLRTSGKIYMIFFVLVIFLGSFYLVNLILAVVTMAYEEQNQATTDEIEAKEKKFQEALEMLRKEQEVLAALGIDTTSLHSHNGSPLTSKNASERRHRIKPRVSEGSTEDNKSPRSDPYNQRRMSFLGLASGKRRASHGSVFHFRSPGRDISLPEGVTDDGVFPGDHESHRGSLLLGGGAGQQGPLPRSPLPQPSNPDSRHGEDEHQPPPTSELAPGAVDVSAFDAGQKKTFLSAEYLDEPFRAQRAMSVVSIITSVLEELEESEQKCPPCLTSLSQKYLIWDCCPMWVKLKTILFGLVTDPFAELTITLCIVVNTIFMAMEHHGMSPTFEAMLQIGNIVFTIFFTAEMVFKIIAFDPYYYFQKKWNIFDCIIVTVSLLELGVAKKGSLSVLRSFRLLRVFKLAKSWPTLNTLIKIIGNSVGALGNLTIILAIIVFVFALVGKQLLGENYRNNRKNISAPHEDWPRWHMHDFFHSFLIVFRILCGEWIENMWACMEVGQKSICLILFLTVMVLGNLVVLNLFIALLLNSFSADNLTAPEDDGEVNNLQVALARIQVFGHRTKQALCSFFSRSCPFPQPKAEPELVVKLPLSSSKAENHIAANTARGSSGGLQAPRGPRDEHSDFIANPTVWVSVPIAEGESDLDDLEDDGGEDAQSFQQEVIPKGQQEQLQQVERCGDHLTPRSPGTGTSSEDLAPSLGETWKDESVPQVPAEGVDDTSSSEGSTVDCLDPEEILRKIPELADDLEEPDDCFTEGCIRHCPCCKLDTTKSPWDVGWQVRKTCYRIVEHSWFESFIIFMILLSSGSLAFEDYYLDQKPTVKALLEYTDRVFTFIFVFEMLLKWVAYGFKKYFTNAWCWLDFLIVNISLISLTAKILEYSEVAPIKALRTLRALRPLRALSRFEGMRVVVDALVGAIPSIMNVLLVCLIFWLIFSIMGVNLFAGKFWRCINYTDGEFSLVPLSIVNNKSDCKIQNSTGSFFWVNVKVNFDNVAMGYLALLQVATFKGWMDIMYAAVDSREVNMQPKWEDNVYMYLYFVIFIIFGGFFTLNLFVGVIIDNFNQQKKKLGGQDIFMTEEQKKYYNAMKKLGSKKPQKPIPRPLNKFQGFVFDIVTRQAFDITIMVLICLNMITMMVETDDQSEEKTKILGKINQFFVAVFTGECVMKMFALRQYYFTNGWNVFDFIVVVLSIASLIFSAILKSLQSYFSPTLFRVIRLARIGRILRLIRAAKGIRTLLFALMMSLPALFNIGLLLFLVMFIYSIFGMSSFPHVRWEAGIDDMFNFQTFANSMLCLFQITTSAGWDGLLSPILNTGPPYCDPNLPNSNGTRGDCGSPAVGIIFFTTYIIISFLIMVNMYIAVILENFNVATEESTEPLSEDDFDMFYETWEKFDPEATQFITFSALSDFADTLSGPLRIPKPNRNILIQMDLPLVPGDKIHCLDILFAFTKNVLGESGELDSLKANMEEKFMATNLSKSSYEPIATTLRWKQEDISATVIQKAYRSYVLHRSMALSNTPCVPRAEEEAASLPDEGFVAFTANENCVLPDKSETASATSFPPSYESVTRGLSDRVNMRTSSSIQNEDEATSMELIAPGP

Structure (SMILES): COc1cc(CN(CCN)C(=O)c2cccs2)ccc1OCc1ccccc1.Cl [MBB]
effect on agonist (WS12) potency [1, 12]: right-shifted the corresponding agonist potency to higher values

Structure (SMILES): C[C@H](CCC(=O)O)C[C@H](C)C[C@H](C)C(=O)/C=C(\O)[C@H](C)C[C@H](C)C/C=C/[C@@H](C)[C@@H](O)[C@@H](C)[C@@H](O)C[C@@H]1CC[C@@](C)([C@H]2CC[C@@](C)([C@@H](C)O)O2)O1 [ionomycin]
change of BRET signal on stimulation ([2]; TRPV1-nLuc-Calflux-YFP/mNeonGreen probe): marginal increase
change of BRET signal (potassium efflux) [3]: decrease of the BRET signal

Structure (SMILES): CC(C)C[C@H](NC(=O)c1cc2ccccc2s1)C(=O)N1CCN(C(=O)[C@H](CO)NS(=O)(=O)c2ccc(Cl)cc2Cl)CC1 [GSK1016790A]
change of BRET signal by agonist ([4]; HEK293T cells, FIG. 9A): dose-dependently increased

Structure (SMILES): COc1cc(CNC(=O)CCCC/C=C/C(C)C)ccc1O [CAPS, Capsaïcin]
change of basal BRET after exposure ([5]; kinetic measurement, FIG. 8A): dramatically increased with first-order kinetics

Structure (SMILES): CN[C@H](CC(=O)O)C(=O)O [NMDA, N-methyl-D-aspartate]
EC50 [6]: 12.3 µM
modulation of BRET signal, NR1 probe alone [7]: not modulated

inhibition of CAPS-induced BRET increase [5]: failed to inhibit
Structure (SMILES): CC(C)NCCN(C(C)C)S(=O)(=O)c1ccc(Cl)cc1Cl [RN1734]

change of BRET signal by agonist ([1]; HEK293T cells, FIG. 9B): dose-dependently increased
Structure (SMILES): COc1ccc(NC(=O)[C@@H]2C[C@H](C)CC[C@H]2C(C)C)cc1 [WS12]

change of BRET signal by agonist [8]: dose-dependently increased
Structure (SMILES): Clc1cccc(Cl)c1CSc1nnc(-c2cnccn2)s1 [YODA1]

Structure (SMILES): Cc1c(C(=O)Nc2cccc(C(F)(F)F)c2)cc(-c2ccccc2)n1CCCN1CCOCC1 [HC060747]
effect on agonist (GSK1016790A) potency [4, 12]: right-shifted the corresponding agonist potency to higher values

inhibition of CAPS-induced BRET increase [5]: inhibited the CAPS-induced BRET increase
Structure (SMILES): CC(=O)Nc1nc2c(Oc3cc(-c4ccc(C(F)(F)F)cc4)ncn3)cccc2s1 [AMG517]
effect on dose-response to CAPS (antagonism) ([2]; FIG. 4A): shifted the dose-response to CAPS to the right

Structure (SMILES): CC1(C)[C@H](C(=O)O[C@H](C#N)c2cccc(Oc3ccccc3)c2)[C@@H]1C=C(Br)Br [Deltamethrin]
change of BRET signal [9]: decrease of the BRET signal

change of BRET signal [10]: increase of the BRET signal
Structure (SMILES): [Cl-].[K+] [KCl]

Structure (SMILES): c1ccc(-c2nn[nH]n2)c(Nc2cccc3c2CCCC3)c1 [BL1249]
change of basal BRET [11]: dose-dependently increased the basal BRET
